In patent US9174991B2, “Crystalline form of pemetrexed disodium” (Azad Pharmaceutical Ingredients AG, priority 2009, dated 2015):
Where a name gives a salt, the structure may show the parent alone. Read-outs that look alike come from different tables or passages of the source.

What was measured:
[1] = Barnett et al., Organic Process Research & Development, 1999, 3, 184-188; cited from earlier work
[2] = starting material, before storage
Protocol: HPLC analysis was done on an Agilent 1100 system equipped with DAD detector using a Zorbax SB-Phenyl column (150×4.6 mm, 3 μm). Measurements were done at 230 nm wavelengths at 25° C. using a flow of 1.0 mL/min and 8 min post-run time. As mobile phase water containing 0.03% TFA and acetonitrile containing 0.025% TFA were used, solvents were HPLC grade. Sample preparation: 10 mg sample in 25 mL water:ACN=1:1, 5 uL injection. Retention time Pemetrexed Disodium: 10.3 min.
PXRD: Routine PXRD measurements were carried out on a Bruker AXS D8Advance diffractometer equipped with CuKα source with CuKβ filter and a VANTEC detector (Ser. No.: 202964). Measurement parameters: 3° 2theta to 39.9° 2theta, step time: 2s, step size: 0.022°, T=25° C., X-ray generator: 35 kV/40 mA.

[3] = 70° C., 5 mbar
Protocol: To investigate the stability of the different forms of Pemetrexed Disodium a stability test concerning storage at different relative humidity, storage in the presence of light and stability under drying conditions was carried out.
Four samples were stored at 70° 5 mbar in laboratory vacuum oven. IPC were taken after 2 d, 9 d
HPLC analysis was done on an Agilent 1100 system equipped with DAD detector using a Zorbax SB-Phenyl column (150×4.6 mm, 3 μm). Measurements were done at 230 nm wavelengths at 25° C. using a flow of 1.0 mL/min and 8 min post-run time. […] Sample preparation: 10 mg sample in 25 mL water:ACN=1:1, 5 uL injection.

[4] = not given; remark: listed apart in the source
[5] = 5% to 12% relative humidity, dark, air, 2 d, measured 11.7% (Form A 5.8%), 23° C.
[6] = 5% to 12% relative humidity, dark, air, 5 d, measured 9.5% (Form A 5.3%), 24° C.
[7] = 5% to 12% relative humidity, dark, air, 9 d, measured 9% (Form A 6%), 24° C.
[8] = 5% to 12% relative humidity, dark, air, 16 d, measured 8.5% (Form A 5.8%), 24° C.
[9] = 27% to 33% relative humidity, dark, air, 5 d, measured 29% (Form A 27%), 24° C.
[10] = 27% to 33% relative humidity, dark, air, 9 d, measured 31% (Form A 30%), 24° C.
[11] = 27% to 33% relative humidity, dark, air, 16 d, measured 30.4% (Form A 28.7%), 24° C.
[12] = 39% to 50% relative humidity, dark, air, 2 d, measured 41.1% (Form A 39%), 23° C.
[13] = 39% to 50% relative humidity, dark, air, 5 d, measured 42.8% (Form A 38.6%), 24° C.
[14] = 39% to 50% relative humidity, dark, air, 9 d, measured 48% (Form A 47%), 24° C.
[15] = 39% to 50% relative humidity, dark, air, 16 d, measured 47.3% (Form A 46.4%), 24° C.
[16] = 60% to 70% relative humidity, dark, air, 2 d, measured 61%, 22° C. (Form A 54%, 23° C)
[17] = 60% to 70% relative humidity, dark, air, 5 d, measured 63% (Form A 57%), 24° C.
[18] = 60% to 70% relative humidity, dark, air, 9 d, measured 69% (Form A 68%), 24° C.
[19] = 60% to 70% relative humidity, dark, air, 16 d, measured 66.9% (Form A 67.2%), 24° C.
[20] = daylight, text says after 16 d, listed as Pemetrexed Disodium Form A
[21] = double PE plastic bags, daylight, 20° C. to 25° C., 15 d

In the case of `Nc1nc(O)c2c(CCc3ccc(C(=O)N[C@@H](CCC(=O)O)C(=O)O)cc3)c[nH]c2n1` [disodium salt II, disodium N-[4-[2-(2-amino-4,7-dihydro-4-oxo-3H-pyrrolo[2,3-d]-pyrimidin-5-yl)ethyl]benzoyl]-L-glutamic acid salt], the “hygroscopicity (in words)” value [1] is listed as “hygroscopic solid”.

For `Nc1nc(O)c2c(CCc3ccc(C(=O)N[C@@H](CCC(=O)O)C(=O)O)cc3)c[nH]c2n1` [Form A, disodium N-[4-[2-(2-amino-4,7-dihydro-4-oxo-3H-pyrrolo[2,3-d]-pyrimidin-5-yl)ethyl]benzoyl]-L-glutamic acid salt], the “HPLC-purity (10.5 min)” value [2] was 99.59%, the PXRD [2] was “Form A” and the “HPLC-purity (10.5 min)” value ([3]; 2 d) was 99.67%. For the same compound, the PXRD ([3]; 2 d) was “Form A”, the Aspect ([3]; 9 d) was “beige” and the “HPLC-purity (10.5 min)” value ([3]; 9 d) was 99.41%. The “change in HPLC-purity upon vacuum drying (in words)” value ([3]; up to 9 d, listed as Pemetrexed Disodium Form A) was “significant decrease”, the “change in water content (in words)” value (5% to 12% rel. humidity (for Form A and Form IV: 7% to 12%), up to 16 d, listed as Pemetrexed Disodium Form A) was “does not show a significant change” and the “change in HPLC-purity (in words)” value (5% to 12% rel. humidity (text for Form A: 7% to 12%), up to 16 d, listed as Pemetrexed Disodium Form A) was “does not show a significant change”. The “H2O (KFT)” value [5] was 3.5%, the “HPLC-purity (10.5 min)” value [5] was 99.59% and the PXRD [5] was “Form A”. The “HPLC-purity (10.5 min)” value [6] was 99.33%, the PXRD [6] was “Form A” and the “HPLC-purity (10.5 min)” value [7] was 99.58%. The PXRD [7] was “Form A”, the HPLC-purity [8] was 99.50% and the PXRD [8] was “Form A”. The “change in HPLC-purity (in words)” value (27% to 33% rel. humidity, after 16 d) was “without visible change”, the “change in water content (in words)” value (27% to 33% rel. humidity, up to 16 d, listed as Pemetrexed Disodium Form A) was “significant in increase” and the HPLC-purity (27% to 33% relative humidity, dark, air, 2 d, measured 29.8% (Form A 28%), 23° C.) was 99.60%. For the same compound, the HPLC-purity [9] was 99.43%, the PXRD [9] was “Form A” and the HPLC-purity [10] was 99.57%. For the same compound, the PXRD [10] was “Form A”, the HPLC-purity [11] was 99.69% and the PXRD [11] was “Form A”. The HPLC-purity [12] was 99.68%, the PXRD [12] was “Form A” and the HPLC-purity [13] was 99.64%. For the same compound, the PXRD [13] was “Form A”, the HPLC-purity [14] was 99.62% and the PXRD [14] was “Form A”. For the same compound, the HPLC-purity [15] was 99.70%, the PXRD [15] was “Form A” and the “change in HPLC-purity (in words)” value (40% to 50% rel. humidity, after 16 d) was “without visible change”. For the same compound, the “change in water content (in words)” value (40% to 50% rel. humidity, up to 16 d, listed as Pemetrexed Disodium Form A) was “significant in increase”, the uptake of water (60% to 70% rel. humidity) was 21% and the “change in HPLC-purity (in words)” value (60% to 70% rel. humidity, after 9 d) was “without significant change”. For the same compound, the HPLC-purity [16] was 99.71%, the PXRD [16] was “Form A” and the HPLC-purity [17] was 99.51%. For the same compound, the PXRD [17] was “Form A”, the HPLC-purity [18] was 99.71% and the PXRD [18] was “Heptahydrate”. The PXRD (60% to 70% relative humidity, dark, air, 9 d, measured 69% (Form A 68%), 24° C., listed as Pemetrexed Disodium Form A) was “complete transformation to Pemetrexed Disodium Heptahydrate”, the HPLC-purity [19] was 99.72% and the PXRD [19] was “Heptahydrate”. For the same compound, the HPLC-purity ([4]; daylight study, Start) was 99.71%, the “change in HPLC purity in the presence of light (in words)” value [4, 20] was “a lot of decomposition products” and the “change in color in the presence of light (in words)” value [4, 20] was “significant formation of color”. For the same compound, the Aspect [4, 21] was “beige”, the “H2O (KFT)” value [4, 21] was 2.44% and the HPLC-purity [4, 21] was 95.83%.
